Publication PMC12446476 (Nature Communications, 2025)
Converted amounts (≈) assume the structure as drawn. Where two headings read alike, the source gives them in different places.

System: non-gonococcal Neisseria
Test: MIC determination for non-gonococcal Neisseria, agar dilution
Format: cell-based, Neisseria species
Conditions: read-out: Minimum inhibitory concentration
Description: The 2024 WHO N. gonorrhoeae reference strains were used for quality control. Only whole MIC doubling dilutions are reported. Clinical breakpoints or the epidemiological cutoff (ECOFF, to indicate azithromycin resistance) from EUCAST (v14.0, https://www.eucast.org/clinical_breakpoints) were used to classify isolates as antimicrobial susceptible or resistant. […] Two times the standard inoculum defined by CLSI was used to establish consistent growth in untreated control samples for some strains. In vitro time-kill assays were performed according to CLSI guidelines[65] using Columbia Broth (BD Difco) supplemented with 1% IsoVitaleX Enrichment (BD). Viable bacterial counts were generated by plating 10-fold serially diluted samples on GC agar plates containing 1% IsoVitaleX Enrichment (BD).

Work on `Cc1c(CN(C)C(=O)/C=C/c2cnc3c(c2)N[C@H](C)[C@H](O)C(=O)N3)oc2ccccc12` [Debio 1453] yielded an MIC (Neisseria lactamica 1, Replicate 3) of 0.032 mg/L (≈ 0.0761 µM), an MIC (Neisseria lactamica 2, Consensus) of 0.064 mg/L (≈ 0.152 µM) and an MIC (Neisseria lactamica 2, Replicate 1) of 0.064 mg/L (≈ 0.152 µM). The MIC (Neisseria lactamica 2, Replicate 2) was 0.064 mg/L (≈ 0.152 µM), the MIC (Neisseria lactamica 2, Replicate 3) was 0.064 mg/L (≈ 0.152 µM) and the MIC (Neisseria lactamica 3, Consensus) was 0.016 mg/L (≈ 0.0381 µM). It also gave an MIC (Neisseria lactamica 3, Replicate 1) of 0.016 mg/L (≈ 0.0381 µM), an MIC (Neisseria lactamica 3, Replicate 2) of 0.016 mg/L (≈ 0.0381 µM) and an MIC (Neisseria lactamica 3, Replicate 3) of 0.016 mg/L (≈ 0.0381 µM). It also gave an MIC (Neisseria lactamica 4, Consensus) of 0.064 mg/L (≈ 0.152 µM), an MIC (Neisseria lactamica 4, Replicate 1) of 0.064 mg/L (≈ 0.152 µM) and an MIC (Neisseria lactamica 4, Replicate 2) of 0.064 mg/L (≈ 0.152 µM). The MIC (Neisseria lactamica 4, Replicate 3) was 0.064 mg/L (≈ 0.152 µM), the MIC (Neisseria lactamica 5, Consensus) was 0.016 mg/L (≈ 0.0381 µM) and the MIC (Neisseria lactamica 5, Replicate 1) was 0.032 mg/L (≈ 0.0761 µM). For the same molecule, the MIC (Neisseria lactamica 5, Replicate 2) was 0.016 mg/L (≈ 0.0381 µM), the MIC (Neisseria lactamica 5, Replicate 3) was 0.016 mg/L (≈ 0.0381 µM) and the MIC (Neisseria lactamica 6, Consensus) was 0.032 mg/L (≈ 0.0761 µM). For the same molecule, the MIC (Neisseria lactamica 6, Replicate 1) was 0.032 mg/L (≈ 0.0761 µM), the MIC (Neisseria lactamica 6, Replicate 2) was 0.032 mg/L (≈ 0.0761 µM) and the MIC (Neisseria lactamica 6, Replicate 3) was 0.032 mg/L (≈ 0.0761 µM). The MIC (Neisseria lactamica 7, Consensus) was 0.032 mg/L (≈ 0.0761 µM), the MIC (Neisseria lactamica 7, Replicate 1) was 0.032 mg/L (≈ 0.0761 µM) and the MIC (Neisseria lactamica 7, Replicate 2) was 0.032 mg/L (≈ 0.0761 µM). For the same molecule, the MIC (Neisseria lactamica 7, Replicate 3) was 0.064 mg/L (≈ 0.152 µM), the MIC (Neisseria lactamica 8, Consensus) was 0.032 mg/L (≈ 0.0761 µM) and the MIC (Neisseria lactamica 8, Replicate 1) was 0.032 mg/L (≈ 0.0761 µM). The MIC (Neisseria lactamica 8, Replicate 2) was 0.032 mg/L (≈ 0.0761 µM), the MIC (Neisseria lactamica 8, Replicate 3) was 0.064 mg/L (≈ 0.152 µM) and the MIC (Neisseria lactamica 9, Consensus) was 0.064 mg/L (≈ 0.152 µM). For the same molecule, the MIC (Neisseria lactamica 9, Replicate 1) was 0.064 mg/L (≈ 0.152 µM), the MIC (Neisseria lactamica 9, Replicate 2) was 0.032 mg/L (≈ 0.0761 µM) and the MIC (Neisseria lactamica 9, Replicate 3) was 0.064 mg/L (≈ 0.152 µM). For the same molecule, the MIC (Neisseria lactamica 10, Consensus) was 0.032 mg/L (≈ 0.0761 µM), the MIC (Neisseria lactamica 10, Replicate 1) was 0.032 mg/L (≈ 0.0761 µM) and the MIC (Neisseria lactamica 10, Replicate 2) was 0.016 mg/L (≈ 0.0381 µM). The MIC (Neisseria lactamica 10, Replicate 3) was 0.032 mg/L (≈ 0.0761 µM), the MIC (Neisseria lactamica 11, Consensus) was 0.032 mg/L (≈ 0.0761 µM) and the MIC (Neisseria lactamica 11, Replicate 1) was 0.032 mg/L (≈ 0.0761 µM). The MIC (Neisseria lactamica 11, Replicate 2) was 0.032 mg/L (≈ 0.0761 µM), the MIC (Neisseria lactamica 11, Replicate 3) was 0.032 mg/L (≈ 0.0761 µM) and the MIC (Neisseria macacae 1, Consensus) was 2 mg/L (≈ 4.76 µM). It also gave an MIC (Neisseria macacae 1, Replicate 1) of 1 mg/L (≈ 2.38 µM), an MIC (Neisseria macacae 1, Replicate 2) of 2 mg/L (≈ 4.76 µM) and an MIC (Neisseria macacae 1, Replicate 3) of 2 mg/L (≈ 4.76 µM). The MIC (Neisseria macacae 2, Consensus) was 2 mg/L (≈ 4.76 µM), the MIC (Neisseria macacae 2, Replicate 1) was 2 mg/L (≈ 4.76 µM) and the MIC (Neisseria macacae 2, Replicate 2) was 2 mg/L (≈ 4.76 µM). For the same molecule, the MIC (Neisseria macacae 2, Replicate 3) was 2 mg/L (≈ 4.76 µM), the MIC (Neisseria macacae 3, Consensus) was 0.25 mg/L (≈ 0.595 µM) and the MIC (Neisseria macacae 3, Replicate 1) was 0.25 mg/L (≈ 0.595 µM). For the same molecule, the MIC (Neisseria macacae 3, Replicate 2) was 0.25 mg/L (≈ 0.595 µM), the MIC (Neisseria macacae 3, Replicate 3) was 0.5 mg/L (≈ 1.19 µM) and the MIC (Neisseria macacae 4, Consensus) was 2 mg/L (≈ 4.76 µM). It also gave an MIC (Neisseria macacae 4, Replicate 1) of 1 mg/L (≈ 2.38 µM), an MIC (Neisseria macacae 4, Replicate 2) of 2 mg/L (≈ 4.76 µM) and an MIC (Neisseria macacae 4, Replicate 3) of 2 mg/L (≈ 4.76 µM). It also gave an MIC (Neisseria macacae 5, Consensus) of 2 mg/L (≈ 4.76 µM), an MIC (Neisseria macacae 5, Replicate 1) of 2 mg/L (≈ 4.76 µM) and an MIC (Neisseria macacae 5, Replicate 2) of 2 mg/L (≈ 4.76 µM). For the same molecule, the MIC (Neisseria macacae 5, Replicate 3) was 2 mg/L (≈ 4.76 µM), the MIC (Neisseria macacae 6, Consensus) was 0.5 mg/L (≈ 1.19 µM) and the MIC (Neisseria macacae 6, Replicate 1) was 0.25 mg/L (≈ 0.595 µM). The MIC (Neisseria macacae 6, Replicate 2) was 0.5 mg/L (≈ 1.19 µM), the MIC (Neisseria macacae 6, Replicate 3) was 0.5 mg/L (≈ 1.19 µM) and the MIC (Neisseria macacae 7, Consensus) was 0.5 mg/L (≈ 1.19 µM). For the same molecule, the MIC (Neisseria macacae 7, Replicate 1) was 0.25 mg/L (≈ 0.595 µM), the MIC (Neisseria macacae 7, Replicate 2) was 0.5 mg/L (≈ 1.19 µM) and the MIC (Neisseria macacae 7, Replicate 3) was 0.5 mg/L (≈ 1.19 µM). The MIC (Neisseria meningitidis gr 29E, Consensus) was 0.064 mg/L (≈ 0.152 µM), the MIC (Neisseria meningitidis gr 29E, Replicate 1) was 0.064 mg/L (≈ 0.152 µM) and the MIC (Neisseria meningitidis gr 29E, Replicate 2) was 0.032 mg/L (≈ 0.0761 µM). For the same molecule, the MIC (Neisseria meningitidis gr 29E, Replicate 3) was 0.064 mg/L (≈ 0.152 µM), the MIC (Neisseria meningitidis gr A, Consensus) was 0.032 mg/L (≈ 0.0761 µM) and the MIC (Neisseria meningitidis gr A, Replicate 1) was 0.032 mg/L (≈ 0.0761 µM). For the same molecule, the MIC (Neisseria meningitidis gr A, Replicate 2) was 0.032 mg/L (≈ 0.0761 µM), the MIC (Neisseria meningitidis gr A, Replicate 3) was 0.032 mg/L (≈ 0.0761 µM) and the MIC (Neisseria meningitidis gr B, Consensus) was 0.016 mg/L (≈ 0.0381 µM). For the same molecule, the MIC (Neisseria meningitidis gr B, Replicate 1) was 0.016 mg/L (≈ 0.0381 µM), the MIC (Neisseria meningitidis gr B, Replicate 2) was 0.016 mg/L (≈ 0.0381 µM) and the MIC (Neisseria meningitidis gr B, Replicate 3) was 0.016 mg/L (≈ 0.0381 µM). It also gave an MIC (Neisseria meningitidis gr C, Consensus) of 0.032 mg/L (≈ 0.0761 µM), an MIC (Neisseria meningitidis gr C, Replicate 1) of 0.032 mg/L (≈ 0.0761 µM) and an MIC (Neisseria meningitidis gr C, Replicate 2) of 0.032 mg/L (≈ 0.0761 µM). For the same molecule, the MIC (Neisseria meningitidis gr C, Replicate 3) was 0.032 mg/L (≈ 0.0761 µM), the MIC (Neisseria meningitidis gr W, Consensus) was 0.008 mg/L (≈ 0.019 µM) and the MIC (Neisseria meningitidis gr W, Replicate 1) was 0.008 mg/L (≈ 0.019 µM). The MIC (Neisseria meningitidis gr W, Replicate 2) was 0.008 mg/L (≈ 0.019 µM), the MIC (Neisseria meningitidis gr W, Replicate 3) was 0.008 mg/L (≈ 0.019 µM) and the MIC (Neisseria meningitidis gr X, Consensus) was 0.016 mg/L (≈ 0.0381 µM). It also gave an MIC (Neisseria meningitidis gr X, Replicate 1) of 0.016 mg/L (≈ 0.0381 µM), an MIC (Neisseria meningitidis gr X, Replicate 2) of 0.016 mg/L (≈ 0.0381 µM) and an MIC (Neisseria meningitidis gr X, Replicate 3) of 0.016 mg/L (≈ 0.0381 µM). The MIC (Neisseria meningitidis gr Y, Consensus) was 0.008 mg/L (≈ 0.019 µM), the MIC (Neisseria meningitidis gr Y, Replicate 1) was 0.016 mg/L (≈ 0.0381 µM) and the MIC (Neisseria meningitidis gr Y, Replicate 2) was 0.008 mg/L (≈ 0.019 µM). The MIC (Neisseria meningitidis gr Y, Replicate 3) was 0.008 mg/L (≈ 0.019 µM), the MIC (Neisseria meningitidis gr Z, Consensus) was 0.016 mg/L (≈ 0.0381 µM) and the MIC (Neisseria meningitidis gr Z, Replicate 1) was 0.032 mg/L (≈ 0.0761 µM). The MIC (Neisseria meningitidis gr Z, Replicate 2) was 0.016 mg/L (≈ 0.0381 µM), the MIC (Neisseria meningitidis gr Z, Replicate 3) was 0.016 mg/L (≈ 0.0381 µM) and the MIC (Neisseria mucosa 1, Consensus) was 0.25 mg/L (≈ 0.595 µM). For the same molecule, the MIC (Neisseria mucosa 1, Replicate 1) was 0.25 mg/L (≈ 0.595 µM), the MIC (Neisseria mucosa 1, Replicate 2) was 0.5 mg/L (≈ 1.19 µM) and the MIC (Neisseria mucosa 1, Replicate 3) was 0.25 mg/L (≈ 0.595 µM). The MIC (Neisseria mucosa 2, Replicate 1) was 0.064 mg/L (≈ 0.152 µM), the MIC (Neisseria mucosa 3, Consensus) was 0.032 mg/L (≈ 0.0761 µM) and the MIC (Neisseria mucosa 3, Replicate 1) was 0.032 mg/L (≈ 0.0761 µM). It also gave an MIC (Neisseria mucosa 3, Replicate 2) of 0.032 mg/L (≈ 0.0761 µM), an MIC (Neisseria mucosa 3, Replicate 3) of 0.064 mg/L (≈ 0.152 µM) and an MIC (Neisseria mucosa 4, Consensus) of 1 mg/L (≈ 2.38 µM).
